Measurements published in US8853418B2, “Cyclopentylpyrazoles as N-type calcium channel blockers” (Janssen Pharmaceutica NV, priority 2012, dated 2014).
pIC50: −log10 of the molar value.

Molecular target: N-type calcium channel (α1B (Cav2.2), β3 and α2δ subunits) (Homo sapiens, UniProt Q00975)
Assay: Functional Assay: Antagonism of N-Type Calcium Channel (FDSS calcium mobilization, KCl depolarization)
Assay type: cell-based
Conditions: for pIC50: HEK cell line, 50 mM KCl depolarization, six-point concentration-response, read-out: FDSS IC50
Experimental: A stable cell line (HEK parent) co-expressing the α1B (Cav2.2), β3 and α2δ subunits of the N-type calcium channel subunits was used. These cells were routinely grown as monolayers in low glucose-containing Dulbecco's Modified Eagle Medium supplemented with 10% FBS, 2 mM L-glutamine, 100 I.U./mL penicillin, 100 μg/mL streptomycin, 400 μg/mL G418 and 200 μg/mL Zeocin (split ratio=1:5). Cells were maintained in 5% CO2 at 37° C. Compounds of Formula (I) were prepared as 10 mM stocks in DMSO from neat compound, if available. Otherwise, the 5 or 10 mM DMSO stock solutions provided in-house were used.
Calcium mobilization responses to KCl depolarization were evaluated by measuring the intensity of calcium-mediated fluorescent signal in the presence of BD Calcium Assay Dye (BD Biosciences, Franklin Lakes, N.J., U.S.A.), utilizing a Functional Drug Screening System (FDSS) by Hamamatsu Corporation (Bridgewater, N.J. U.S.A.).
Twenty-four hr prior to assay, cells were seeded in clear-base poly-D-lysine-coated 384-well plates (BD Biosciences) at a density of 5,000 cells per well in culture medium and grown overnight in 5% CO2 at 37° C. On the day of assay, growth media were removed, and cells were loaded with BD calcium assay dye (BD Biosciences) for 35 min at 37° C. under 5% CO2 and then for 25 min at room temp. Utilizing the FDSS, cells were exposed to representative compounds of Formula (I) at varying concentrations, and intracellular calcium was measured for 5 min prior to the addition of 50 mM KCl for an additional 3 min of measurement.
Calculations and Formulas
IC50 values for representative compounds of Formula (I) were determined from six-point concentration-response experiments and represent the concentration of said compound required to inhibit 50% of the maximal response. Maximal fluorescence intensity (FI) achieved upon addition of 50 mM KCl was exported from the FDSS software and further analyzed using GraphPad Prism 3.02 (Graph Pad Software Inc., San Diego, Calif., U.S.A.). Data were normalized to the maximum average counts from quadruplicate wells for each condition in the presence of 50 mM KCl and to the minimum average counts in the presence of buffer. Theoretical curves were generated using nonlinear regression curve-fitting analysis of either sigmoidal concentration-response or sigmoidal concentration-response (variable slope), and the IC50 values with the best-fit curve determined by GraphPad Prism were reported.

Sequence of N-type calcium channel (α1B (Cav2.2), β3 and α2δ subunits) (Q00975 whole entry): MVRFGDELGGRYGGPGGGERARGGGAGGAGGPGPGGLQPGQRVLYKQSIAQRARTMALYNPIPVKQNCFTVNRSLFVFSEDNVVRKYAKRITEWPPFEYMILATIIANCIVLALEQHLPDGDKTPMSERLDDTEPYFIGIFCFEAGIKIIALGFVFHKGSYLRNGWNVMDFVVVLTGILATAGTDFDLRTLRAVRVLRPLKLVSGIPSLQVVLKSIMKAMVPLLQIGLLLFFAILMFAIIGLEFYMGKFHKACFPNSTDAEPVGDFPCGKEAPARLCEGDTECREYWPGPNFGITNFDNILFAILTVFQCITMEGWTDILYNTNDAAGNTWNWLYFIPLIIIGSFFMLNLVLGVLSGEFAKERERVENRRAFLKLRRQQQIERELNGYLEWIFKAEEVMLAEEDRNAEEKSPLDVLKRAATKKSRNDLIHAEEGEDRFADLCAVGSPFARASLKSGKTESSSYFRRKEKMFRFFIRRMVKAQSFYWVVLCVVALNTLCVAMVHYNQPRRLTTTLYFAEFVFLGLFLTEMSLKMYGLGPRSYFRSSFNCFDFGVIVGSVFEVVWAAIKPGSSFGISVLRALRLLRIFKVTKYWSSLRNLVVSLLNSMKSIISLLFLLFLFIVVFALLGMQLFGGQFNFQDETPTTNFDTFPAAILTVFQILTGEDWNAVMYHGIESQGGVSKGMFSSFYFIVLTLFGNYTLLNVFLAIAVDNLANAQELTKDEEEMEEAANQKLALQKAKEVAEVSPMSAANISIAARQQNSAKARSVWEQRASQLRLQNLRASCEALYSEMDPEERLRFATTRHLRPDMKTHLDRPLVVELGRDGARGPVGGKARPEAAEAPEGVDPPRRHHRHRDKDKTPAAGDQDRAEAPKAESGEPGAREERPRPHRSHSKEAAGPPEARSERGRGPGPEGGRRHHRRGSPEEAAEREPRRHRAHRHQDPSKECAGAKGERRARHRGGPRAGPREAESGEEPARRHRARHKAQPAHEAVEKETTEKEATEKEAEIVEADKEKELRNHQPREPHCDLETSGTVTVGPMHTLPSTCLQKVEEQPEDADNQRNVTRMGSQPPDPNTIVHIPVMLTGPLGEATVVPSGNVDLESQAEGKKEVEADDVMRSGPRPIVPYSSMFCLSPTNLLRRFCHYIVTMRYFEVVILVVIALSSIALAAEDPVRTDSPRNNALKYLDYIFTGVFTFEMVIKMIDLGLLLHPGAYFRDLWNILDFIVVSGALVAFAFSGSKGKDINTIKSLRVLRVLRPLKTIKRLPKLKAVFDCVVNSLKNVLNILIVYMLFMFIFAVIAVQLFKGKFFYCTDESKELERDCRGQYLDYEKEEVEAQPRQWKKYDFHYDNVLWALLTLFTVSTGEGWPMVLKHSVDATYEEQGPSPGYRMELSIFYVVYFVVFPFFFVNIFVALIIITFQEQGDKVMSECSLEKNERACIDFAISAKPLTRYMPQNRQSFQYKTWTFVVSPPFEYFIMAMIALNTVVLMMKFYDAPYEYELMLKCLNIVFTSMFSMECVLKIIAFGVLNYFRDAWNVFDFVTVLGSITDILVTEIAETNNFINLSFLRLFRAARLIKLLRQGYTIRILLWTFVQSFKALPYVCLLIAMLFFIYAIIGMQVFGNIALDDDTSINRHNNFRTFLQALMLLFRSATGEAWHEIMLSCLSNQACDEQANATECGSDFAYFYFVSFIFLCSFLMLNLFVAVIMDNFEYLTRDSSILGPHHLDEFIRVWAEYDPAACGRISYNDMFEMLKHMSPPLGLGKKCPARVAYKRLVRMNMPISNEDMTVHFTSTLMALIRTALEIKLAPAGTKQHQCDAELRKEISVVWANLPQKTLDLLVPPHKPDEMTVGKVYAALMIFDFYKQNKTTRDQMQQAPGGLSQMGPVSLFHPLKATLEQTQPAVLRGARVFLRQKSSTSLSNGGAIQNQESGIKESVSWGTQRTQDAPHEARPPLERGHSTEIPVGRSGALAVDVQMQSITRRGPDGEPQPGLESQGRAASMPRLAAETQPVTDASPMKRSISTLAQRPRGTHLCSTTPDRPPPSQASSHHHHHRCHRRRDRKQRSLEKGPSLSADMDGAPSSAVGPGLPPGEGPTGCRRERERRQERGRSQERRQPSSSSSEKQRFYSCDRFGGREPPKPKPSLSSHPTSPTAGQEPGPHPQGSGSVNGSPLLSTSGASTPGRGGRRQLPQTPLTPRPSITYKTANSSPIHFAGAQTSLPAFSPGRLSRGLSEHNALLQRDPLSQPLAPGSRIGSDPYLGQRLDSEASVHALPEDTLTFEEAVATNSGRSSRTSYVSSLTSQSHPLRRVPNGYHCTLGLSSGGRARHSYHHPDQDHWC
Sequence of N-type calcium channel (α1B (Cav2.2), β3 and α2δ subunits) (P54284 whole entry partner): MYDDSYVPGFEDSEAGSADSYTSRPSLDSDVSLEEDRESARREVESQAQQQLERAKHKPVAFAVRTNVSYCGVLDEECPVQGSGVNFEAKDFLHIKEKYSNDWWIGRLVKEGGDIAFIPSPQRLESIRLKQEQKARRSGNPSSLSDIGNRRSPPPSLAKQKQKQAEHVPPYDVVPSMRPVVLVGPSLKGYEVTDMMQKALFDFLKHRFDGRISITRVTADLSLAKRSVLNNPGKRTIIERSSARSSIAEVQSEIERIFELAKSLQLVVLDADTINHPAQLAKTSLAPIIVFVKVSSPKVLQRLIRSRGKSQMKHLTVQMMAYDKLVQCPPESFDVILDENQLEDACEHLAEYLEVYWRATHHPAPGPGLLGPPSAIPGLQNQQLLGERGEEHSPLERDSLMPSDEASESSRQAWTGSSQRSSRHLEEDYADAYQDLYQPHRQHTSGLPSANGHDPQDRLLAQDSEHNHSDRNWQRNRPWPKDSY
Sequence of N-type calcium channel (α1B (Cav2.2), β3 and α2δ subunits) (P54289 25-946 partner limits assumed): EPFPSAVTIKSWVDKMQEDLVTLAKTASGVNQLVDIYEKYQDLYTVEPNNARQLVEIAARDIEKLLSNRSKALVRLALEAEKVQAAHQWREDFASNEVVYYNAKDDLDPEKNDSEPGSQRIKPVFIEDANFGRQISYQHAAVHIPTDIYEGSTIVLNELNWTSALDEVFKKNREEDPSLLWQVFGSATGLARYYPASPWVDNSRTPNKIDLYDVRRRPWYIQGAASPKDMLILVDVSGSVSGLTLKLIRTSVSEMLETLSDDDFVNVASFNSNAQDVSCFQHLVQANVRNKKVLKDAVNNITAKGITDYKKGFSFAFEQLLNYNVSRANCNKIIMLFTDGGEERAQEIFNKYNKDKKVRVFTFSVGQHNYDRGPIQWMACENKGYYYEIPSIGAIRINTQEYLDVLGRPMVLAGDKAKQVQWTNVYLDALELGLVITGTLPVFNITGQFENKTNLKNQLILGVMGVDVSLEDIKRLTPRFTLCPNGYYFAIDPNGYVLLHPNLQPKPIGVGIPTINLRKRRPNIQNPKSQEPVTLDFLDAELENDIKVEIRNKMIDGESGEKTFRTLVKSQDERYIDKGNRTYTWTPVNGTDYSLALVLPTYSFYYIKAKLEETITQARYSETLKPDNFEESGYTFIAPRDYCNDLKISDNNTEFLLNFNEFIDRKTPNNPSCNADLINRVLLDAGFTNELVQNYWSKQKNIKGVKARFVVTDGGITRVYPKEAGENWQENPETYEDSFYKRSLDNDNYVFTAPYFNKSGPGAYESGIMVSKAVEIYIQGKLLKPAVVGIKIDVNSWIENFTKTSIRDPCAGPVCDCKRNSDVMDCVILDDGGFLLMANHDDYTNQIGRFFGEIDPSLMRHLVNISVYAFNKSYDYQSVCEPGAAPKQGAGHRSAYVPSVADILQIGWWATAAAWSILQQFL
Sequence of N-type calcium channel (α1B (Cav2.2), β3 and α2δ subunits) (P54289 947-1103 partner limits assumed): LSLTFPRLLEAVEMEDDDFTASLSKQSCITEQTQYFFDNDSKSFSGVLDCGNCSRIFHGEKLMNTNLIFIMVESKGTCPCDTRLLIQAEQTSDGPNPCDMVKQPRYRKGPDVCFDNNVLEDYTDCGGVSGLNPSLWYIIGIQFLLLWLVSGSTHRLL

Row | Structure (SMILES) | pIC50 | inhibition at 1 µM [%] | inhibition at 0.33 µM [%]
1 | CCc1ccccc1-n1nc2c(c1-c1ccc(Cl)cc1)CC(/C=N\C(=O)OC(C)(C)C)C2 (racemic) [Compound 15, tert-butyl{[3-(4-chlorophenyl)-2-(2-ethylphenyl)-2,4,5,6-tetrahydrocyclopenta[c]pyrazol-5-yl]methylidene}carbamate] | 6.52 |  | 
2 | COc1ccccc1-n1nc2c(c1-c1ccccc1)CC(CNS(C)(=O)=O)C2 (stereo not shown) [Compound 7, N-{[2-(2-methoxyphenyl)-3-phenyl-2,4,5,6-tetrahydrocyclopenta[c]pyrazol-5-yl]methyl}methanesulfonamide] |  |  | 68
3 | COc1ccccc1-n1nc2c(c1-c1ccccc1)CC(C#N)C2 (stereo not shown) [Compound 9, 2-(2-methoxyphenyl)-3-phenyl-2,4,5,6-tetrahydrocyclopenta[c]pyrazole-5-carbonitrile] |  |  | 59
4 | CCc1ccccc1-n1nc2c(c1-c1ccc(Cl)cc1)CC(COC(=O)N(CC)CC)C2 (stereo not shown) [Compound 17, [3-(4-chlorophenyl)-2-(2-ethylphenyl)-2,4,5,6-tetrahydrocyclopenta[c]pyrazol-5-yl]methyl diethylcarbamate] | 6.74 |  | 
5 | CCc1ccccc1-n1nc2c(c1-c1ccc(Cl)cc1)CC(CNS(C)(=O)=O)C2 (stereo not shown) [Compound 18, N-{[3-(4-chlorophenyl)-2-(2-ethylphenyl)-2,4,5,6-tetrahydrocyclopenta[c]pyrazol-5-yl]methyl}methanesulfonamide] | 6.70 |  | 
6 | CCc1ccccc1-n1nc2c(c1-c1ccc(Cl)cc1)CC(CNC(=O)C(F)(F)F)C2 (stereo not shown) [Compound 19, N-{[3-(4-chlorophenyl)-2-(2-ethylphenyl)-2,4,5,6-tetrahydrocyclopenta[c]pyrazol-5-yl]methyl}-2,2,2-trifluoroacetamide] | 6.89 |  | 
7 | CC(C)(C)OC(=O)NCCC1Cc2nn(-c3ccccc3C(F)(F)F)c(-c3ccc(Cl)cc3)c2C1 (stereo not shown) [Compound 20, tert-butyl(2-{3-(4-chlorophenyl)-2-[2-(trifluoromethyl)phenyl]-2,4,5,6-tetrahydrocyclopenta[c]pyrazol-5-yl}ethyl)carbamate] | 6.59 |  | 
8 | CS(=O)(=O)NCCC1Cc2nn(-c3ccccc3C(F)(F)F)c(-c3ccc(Cl)cc3)c2C1 (stereo not shown) [Compound 21, N-(2-{3-(4-chlorophenyl)-2-[2-(trifluoromethyl)phenyl]-2,4,5,6-tetrahydrocyclopenta[c]pyrazol-5-yl}ethyl)methanesulfonamide] |  | 65 | 
9 | CN(C)C(=O)NCCC1Cc2nn(-c3ccccc3C(F)(F)F)c(-c3ccc(Cl)cc3)c2C1 (stereo not shown) [Compound 22, 3-(2-{3-(4-chlorophenyl)-2-[2-(trifluoromethyl)phenyl]-2,4,5,6-tetrahydrocyclopenta[c]pyrazol-5-yl}ethyl)-1,1-dimethylurea] | 6.66 |  | 
10 | O=C(OC1Cc2nn(-c3ccccc3OC(F)(F)F)c(-c3ccc(Cl)cc3)c2C1)N1CCOCC1 (stereo not shown) [Compound 24, 3-(4-chlorophenyl)-2-[2-(trifluoromethoxy)phenyl]-2,4,5,6-tetrahydrocyclopenta[c]pyrazol-5-ylmorpholine-4-carboxylate] | 6.82 |  | 
11 | COc1cc(Cl)ccc1-n1nc2c(c1-c1ccc(Cl)cc1)CC1(C2)OCCCO1 [Compound 52, 2-(4-Chloro-2-methoxyphenyl)-3-(4-chlorophenyl)-2,6-dihydro-4H-spiro[cyclopenta[c]pyrazole-5,2′-[1,3]dioxane]] | 6.89 |  | 64

Now from value to compound:

Row | pIC50 | inhibition at 1 µM [%] | inhibition at 0.33 µM [%] | Structure (SMILES)
12 | 6.70 |  |  | COc1ccccc1-n1nc2c(c1-c1ccc(Cl)cc1)CC(CCO)C2 (stereo not shown) [Compound 1, 2-[3-(4-chlorophenyl)-2-(2-methoxyphenyl)-2,4,5,6-tetrahydrocyclopenta[c]pyrazol-5-yl]ethanol]
13 |  | 81 |  | C=CCC1Cc2nn(-c3ccccc3OC)c(-c3ccc(Cl)cc3)c2C1 (stereo not shown) [Compound 4, 3-(4-chlorophenyl)-2-(2-methoxyphenyl)-5-prop-2-en-1-yl-2,4,5,6-tetrahydrocyclopenta[c]pyrazole]
14 | 6.31 |  | 75 | COc1ccccc1-n1nc2c(c1-c1ccc(Cl)cc1)CC(C(N)=O)C2 (stereo not shown) [Compound 6, 3-(4-chlorophenyl)-2-(2-methoxyphenyl)-2,4,5,6-tetrahydrocyclopenta[c]pyrazole-5-carboxamide]
15 | 6.52 |  | 83 | COc1ccccc1-n1nc2c(c1-c1ccc(Cl)cc1)CC(C#N)C2 (stereo not shown) [Compound 10, 3-(4-chlorophenyl)-2-(2-methoxyphenyl)-2,4,5,6-tetrahydrocyclopenta[c]pyrazole-5-carbonitrile]
16 | 7.05 |  |  | CCOC(=O)C1Cc2nn(-c3ccccc3CC)c(-c3ccc(Cl)cc3)c2C1 (stereo not shown) [Compound 14, ethyl 3-(4-chlorophenyl)-2-(2-ethylphenyl)-2,4,5,6-tetrahydrocyclopenta[c]pyrazole-5-carboxylate]
17 | 6.85 |  |  | CN(C)C(=O)OC1Cc2nn(-c3ccccc3OC(F)(F)F)c(-c3ccc(Cl)cc3)c2C1 (stereo not shown) [Compound 23, 3-(4-chlorophenyl)-2-[2-(trifluoromethoxy)phenyl]-2,4,5,6-tetrahydrocyclopenta[c]pyrazol-5-yl dimethylcarbamate]
18 |  | 61 |  | OC1Cc2nn(-c3ccccc3OC(F)(F)F)c(-c3ccc(Cl)cc3)c2C1 (stereo not shown) [Compound 25, 3-(4-chlorophenyl)-2-[2-(trifluoromethoxy)phenyl]-2,4,5,6-tetrahydrocyclopenta[c]pyrazol-5-ol]
19 |  | 62 |  | COc1ccccc1-n1nc2c(c1-c1ccc(Cl)cc1)CC(O)C2 (stereo not shown) [Compound 26, 3-(4-chlorophenyl)-2-(2-methoxyphenyl)-2,4,5,6-tetrahydrocyclopenta[c]pyrazol-5-ol]
20 | 7.23 |  |  | COc1ccccc1-n1nc2c(c1-c1ccc(Cl)cc1)CC(=O)C2 [Compound 35, 3-(4-chlorophenyl)-2-(2-methoxyphenyl)-2,6-dihydrocyclopenta[c]pyrazol-5(4H)-one]
21 | 7.72 |  |  | CCOc1ccccc1-n1nc2c(c1-c1ccc(Cl)cc1)CC(N1CCCC1=O)C2 (stereo not shown) [Compound 40, 1-[3-(4-chlorophenyl)-2-(2-ethoxyphenyl)-2,4,5,6-tetrahydrocyclopenta[c]pyrazol-5-yl]pyrrolidin-2-one]
22 | 7.28 |  | 76 | COc1ccccc1-n1nc2c(c1-c1ccc(Cl)cc1)C[C@@H](OC)C2 [Compound 49, (5R)-3-(4-chlorophenyl)-5-methoxy-2-(2-methoxyphenyl)-2,4,5,6-tetrahydrocyclopenta[c]pyrazole]
23 |  |  | 31 | COc1ccccc1-n1nc2c(c1-c1ccc(Cl)cc1)C/C(=N/O)C2 [Compound 53, (5Z)-3-(4-chlorophenyl)-2-(2-methoxyphenyl)-2,6-dihydrocyclopenta[c]pyrazol-5(4H)-one oxime]
24 | 6.89 |  | 65 | COc1ccccc1-n1nc2c(c1-c1ccc(Cl)cc1)C[C@H](Oc1ccccc1)C2 [Compound 58, (5S)-3-(4-chlorophenyl)-2-(2-methoxyphenyl)-5-phenoxy-2,4,5,6-tetrahydrocyclopenta[c]pyrazole]
25 | 7.03 |  | 76 | COc1ccccc1-n1nc2c(c1-c1ccc(Cl)cc1)C[C@H](Oc1cccnc1)C2 [Compound 59, (5S)-3-(4-chlorophenyl)-2-(2-methoxyphenyl)-5-(pyridin-3-yloxy)-2,4,5,6-tetrahydrocyclopenta[c]pyrazole]
